Laboratory results: the NIST ThermoML archive (doi:10.1021/je400512u)
Numbers after ± are expanded uncertainties.

Test: xn = mol fraction of the nth substance listed
Details: 101 kPa, Liquid; for viscosity: Concentric cylinders viscometry; for speed of sound: Pulse-echo method; for mass density: Vibrating tube method

CCCCCCCO [heptan-1-ol] + C1COCCO1
Details | mass density, 313.15 K [kg/m3] | speed of sound, 313.15 K [m/s] | speed of sound, 318.15 K [m/s] | viscosity, 313.15 K [mPa·s] | viscosity, 318.15 K [mPa·s]
x1 = 0.0505 | 992.162 ± 0.27 | 1275.6 ± 1.2 | 1254.7 ± 1.2 | 0.957 ± 0.033 | 0.888 ± 0.031
x1 = 0.1 | 975.379 ± 0.26 | 1270.9 ± 1.2 | 1250.5 ± 1.2 | 0.976 ± 0.034 | 0.905 ± 0.032
x1 = 0.1501 | 960.33 ± 0.26 | 1267.6 ± 1.2 | 1247.5 ± 1.2 | 1.009 ± 0.035 | 0.934 ± 0.033
x1 = 0.2 | 946.025 ± 0.26 | 1264.9 ± 1.2 | 1245.2 ± 1.2 | 1.041 ± 0.036 | 0.964 ± 0.034
x1 = 0.25 | 932.425 ± 0.25 | 1262.8 ± 1.2 | 1243.5 ± 1.2 | 1.088 ± 0.038 | 1.003 ± 0.035
x1 = 0.2997 | 920.079 ± 0.25 | 1261.3 ± 1.2 | 1242.4 ± 1.2 | 1.143 ± 0.04 | 1.052 ± 0.037
x1 = 0.3502 | 908.677 ± 0.25 | 1260.6 ± 1.2 | 1242 ± 1.2 | 1.209 ± 0.042 | 1.109 ± 0.039
x1 = 0.4001 | 898.054 ± 0.24 | 1260 ± 1.2 | 1241.6 ± 1.2 | 1.278 ± 0.045 | 1.168 ± 0.041
x1 = 0.4498 | 888.028 ± 0.24 | 1259.9 ± 1.2 | 1241.7 ± 1.2 | 1.361 ± 0.047 | 1.241 ± 0.043
x1 = 0.4998 | 878.663 ± 0.24 | 1260.3 ± 1.2 | 1242.3 ± 1.2 | 1.463 ± 0.051 | 1.33 ± 0.046
x1 = 0.55 | 870.001 ± 0.24 | 1260.7 ± 1.2 | – | 1.568 ± 0.054 | 1.419 ± 0.049
x1 = 0.6004 | 861.838 ± 0.24 | 1262.1 ± 1.2 | – | 1.691 ± 0.059 | 1.526 ± 0.053
x1 = 0.6501 | 854.006 ± 0.24 | 1262.9 ± 1.2 | – | 1.83 ± 0.064 | 1.645 ± 0.057
x1 = 0.7002 | 846.648 ± 0.24 | 1264.3 ± 1.2 | – | 1.991 ± 0.069 | 1.783 ± 0.062
x1 = 0.7493 | 839.512 ± 0.24 | 1266 ± 1.2 | – | 2.165 ± 0.075 | 1.93 ± 0.067
x1 = 0.7999 | 832.79 ± 0.24 | 1267.4 ± 1.2 | – | 2.38 ± 0.082 | 2.114 ± 0.073
x1 = 0.85 | 826.48 ± 0.24 | 1270.6 ± 1.2 | – | 2.62 ± 0.091 | 2.313 ± 0.08
x1 = 0.8998 | 820.289 ± 0.24 | 1272.2 ± 1.2 | – | 2.913 ± 0.1 | 2.557 ± 0.089
x1 = 0.9498 | 814.421 ± 0.24 | 1274.6 ± 1.2 | – | 3.25 ± 0.11 | 2.835 ± 0.098
x1 = 1 | 809.011 ± 0.23 | 1277.7 ± 1.2 | – | 3.677 ± 0.13 | 3.186 ± 0.11
